# Laboratory results: US10370401B2, “Substituted nucleosides, nucleotides and analogs thereof” (Alios BioPharma, Inc., priority 2013, dated 2019)
# Like-named read-outs stand apart in the source and are kept apart here.
# Key:
# Human rhinovirus 1B = assay: Picornavirus assay (CPE, CellTiter-Glo, HeLa-OHIO cells); format: cell-based; details: Rhinovirus A, 96 h
# subgenomic HCV replicon = assay: HCV replicon assay (Huh-7, luciferase reporter); format: cell-based; details: Hepatitis C virus
# [1] = molecular target: human rhinovirus 16 polymerase (HRV16pol) (Human rhinovirus 16, UniProt Q82122); assay: biochemical; details: HRV16pol, 2.5 h at 30° C., mean of several independent experiments; read-out: IC50
# NS5B570-Con1 (Delta-21) = NS5B570-Con1 (Delta-21) (Hepatitis C virus genotype 1b, UniProt Q9WMX2); assay: biochemical; parameters: species or system HCV
# [2] = Human rhinovirus 1B, HeLa-OHIO cells, 4 d at 33° C., read-out: EC50
# [3] = Huh-7 HCV replicon cells, luciferase, 72 hours, read-out: EC50
# Chain of human rhinovirus 16 polymerase (HRV16pol) (Q82122 1694-2153 limits assumed): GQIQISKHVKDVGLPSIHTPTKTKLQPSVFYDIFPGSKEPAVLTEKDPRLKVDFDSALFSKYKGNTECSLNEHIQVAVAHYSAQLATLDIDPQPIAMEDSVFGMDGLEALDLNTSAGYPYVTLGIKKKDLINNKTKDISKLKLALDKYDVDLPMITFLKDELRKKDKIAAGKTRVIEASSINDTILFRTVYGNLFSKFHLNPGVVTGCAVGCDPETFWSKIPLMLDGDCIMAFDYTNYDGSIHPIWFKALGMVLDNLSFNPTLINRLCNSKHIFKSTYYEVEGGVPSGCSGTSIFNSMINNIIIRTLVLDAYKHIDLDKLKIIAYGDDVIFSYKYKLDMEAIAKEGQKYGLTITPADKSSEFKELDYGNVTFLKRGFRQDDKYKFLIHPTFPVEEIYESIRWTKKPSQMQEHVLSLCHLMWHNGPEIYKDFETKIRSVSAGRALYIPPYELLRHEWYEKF
Compound,EC50 (Human rhinovirus 1B; [2]) [µM],EC50 (subgenomic HCV replicon; [3]) [µM],IC50 [1] [µM],IC50 (NS5B570-Con1 (Delta-21)) [µM],also measured
CC(C)OC(=O)OCOP(=O)(OCOC(=O)OC(C)C)OC[C@@]1(CF)O[C@@H](n2ccc(=O)[nH]c2=O)[C@](C)(O)[C@@H]1OC(=O)CN [Compound 282],,,,,"EC50 (Human rhinovirus 1B): < 1 µM; EC50 (subgenomic HCV replicon; Huh-7, 72 h): < 1 µM"
[N-]=[N+]=NC[C@]1(CO)O[C@@H](n2ccc(N)nc2=O)[C@H](F)[C@@H]1O [Compound 106],1 to 10,10 to 100,,,
Nc1ccn([C@@H]2O[C@H](CO)[C@@H](O)[C@]2(O)CF)c(=O)n1 [Compound 295],10 to 100,1 to 10,,,
CC(C)OC(=O)OCOP(=O)(OCOC(=O)OC(C)C)OC[C@@]1(CCl)O[C@@H](n2ccc(=O)[nH]c2=O)[C@](C)(O)[C@@H]1O [Compound 43],10 to 100,< 1,,,
CCOc1nc(N)nc2c1ncn2[C@@H]1O[C@](F)(COP(=O)(N[C@@H](C)C(=O)OC(C)C)Oc2ccccc2)[C@@H](F)[C@@]1(C)O (some centres unmarked) [Compound 22],,,,,"EC50 (Human rhinovirus 1B): 1 to 10 µM; EC50 (subgenomic HCV replicon; Huh-7, 72 h): 1 to 10 µM"
C[C@@]1(Cl)[C@H](O)[C@@H](COP(=O)(O)OP(=O)(O)OP(=O)(O)O)O[C@H]1n1cnc2c(=O)[nH]c(N)nc21 [compound 246],,,< 1,< 1,
CC(C)OC(=O)OCOP(=O)(OCOC(=O)OC(C)C)OC[C@@]1(CF)O[C@@H](n2ccc(=O)[nH]c2=O)[C@](C)(O)[C@@H]1OC(=O)[C@H](C)N [Compound 281],,,,,"EC50 (Human rhinovirus 1B): < 1 µM; EC50 (subgenomic HCV replicon; Huh-7, 72 h): < 1 µM"
CC(C)(CO)C(=O)SCCOP(=O)(OCCSC(=O)C(C)(C)CO)OC[C@@]1(CF)O[C@@H](n2ccc(=O)[nH]c2=O)[C@](C)(O)[C@@H]1O [Compound 288],,,,,"EC50 (Human rhinovirus 1B): 10 to 100 µM; EC50 (subgenomic HCV replicon; Huh-7, 72 h): 10 to 100 µM"
Nc1ccn([C@@H]2O[C@](CF)(COP(=O)(O)OP(=O)(O)OP(=O)(O)O)[C@@H](O)C2(F)F)c(=O)n1 [compound 82],,,< 1,10 to 100,
CC(=O)OCOP(=O)(OCOC(C)=O)OC[C@@]1(CF)O[C@@H](n2ccc(=O)[nH]c2=O)[C@](C)(O)[C@@H]1O [Compound 67],,10 to 100,,,
CC(C)OC(=O)OCOP(=O)(N[C@@H](C)C(=O)OC(C)C)OC[C@@]1(CF)O[C@@H](n2ccc(=O)[nH]c2=O)[C@](C)(O)[C@@H]1O (some centres unmarked) [Compound 286],1 to 10,< 1,,,
CC(C)C(=O)OCOP(=O)(OCOC(=O)C(C)C)OC[C@@]1(CF)O[C@@H](n2ccc(=O)[nH]c2=O)[C@](C)(O)[C@@H]1O [Compound 70],1 to 10,1 to 10,,,
C[C@@]1(O)[C@H](O)[C@@](CN=[N+]=[N-])(COP(=O)(O)OP(=O)(O)OP(=O)(O)O)O[C@H]1n1ccc(=O)[nH]c1=O [compound 249],,,< 100,10 to 100,
CC#C[C@@]1(O)[C@H](O)[C@@](CF)(COP(=O)(O)OP(=O)(O)OP(=O)(O)O)O[C@H]1n1ccc(=O)[nH]c1=O [compound 252],,,< 10,1 to 10,
COC(=O)OCOP(=O)(OCOC(=O)OC)OC[C@@]1(CF)O[C@@H](n2ccc(=O)[nH]c2=O)[C@](C)(O)[C@@H]1O [Compound 65],10 to 100,10 to 100,,,
CC(C)OC(=O)OCOP(=O)(OCOC(=O)OC(C)C)OC[C@@]1(CF)O[C@@H](n2cnc3c(N)ncnc32)[C@](C)(O)[C@@H]1O [Compound 84],< 1,1 to 10,,,
C=C[C@]1(CO)O[C@@H](n2ccc(N)nc2=O)[C@H](O)[C@@H]1O [compound 303],10 to 100,1 to 10,,,
C=C[C@]1(COP(=O)(O)OP(=O)(O)OP(=O)(O)O)O[C@@H](n2ccc(=O)[nH]c2=O)C(F)(F)[C@@H]1O [compound 72],,,< 100,10 to 100,
CC(C)(CO)C(=O)SCCOP(=O)(NCc1ccccc1)OC[C@@]1(CF)O[C@@H](n2ccc(=O)[nH]c2=O)[C@](C)(O)[C@@H]1O (some centres unmarked) [Compound 280],10 to 100,10 to 100,,,
C=C[C@]1(O)[C@H](n2ccc(=O)[nH]c2=O)O[C@](F)(COP(=O)(O)OP(=O)(O)OP(=O)(O)O)[C@H]1O [compound 236],,,< 10,1 to 10,
CC(C)OC(=O)OCOP(=O)(OCOC(=O)OC(C)C)OC[C@@]1(CF)O[C@@H](n2ccc(=O)n(COC(=O)C(N)C(C)C)c2=O)[C@](C)(O)[C@@H]1O (some centres unmarked) [Compound 52],,,,,"EC50 (Human rhinovirus 1B): < 1 µM; EC50 (subgenomic HCV replicon; Huh-7, 72 h): < 1 µM"
CC(C)OC(=O)OCOP(=O)(OCOC(=O)OC(C)C)OC[C@@]1(CF)O[C@@H](n2ccc(=O)n(COP(=O)(O)O)c2=O)[C@](C)(O)[C@@H]1O [Compound 284],1 to 10,1 to 10,,,
CCOC(=O)OCOP(=O)(OCOC(=O)OCC)OC[C@@]1(CF)O[C@@H](n2ccc(=O)n(COC(=O)C(N)C(C)C)c2=O)[C@](C)(O)[C@@H]1O (some centres unmarked) [Compound 71],,,,,"EC50 (Human rhinovirus 1B): 1 to 10 µM; EC50 (subgenomic HCV replicon; Huh-7, 72 h): 1 to 10 µM"
O=c1ccn([C@@H]2O[C@](CF)(COP(=O)(O)OP(=O)(O)OP(=O)(O)O)[C@@H](O)[C@]2(O)CF)c(=O)[nH]1 [compound 256],,,< 10,10 to 100,

Compound,EC50 (Human rhinovirus 1B; [2]) [µM],EC50 (subgenomic HCV replicon; [3]) [µM],IC50 [1] [µM],IC50 (NS5B570-Con1 (Delta-21)) [µM],also measured
C[C@@]1(O)[C@H](O)[C@@](CCl)(COP(=O)(O)OP(=O)(O)OP(=O)(O)O)O[C@H]1n1ccc(=O)[nH]c1=O [compound 244],,,< 10,< 1,
C#C[C@@]1(O)[C@H](O)[C@@](CF)(COP(=O)(OCOC(=O)OC(C)C)OCOC(=O)OC(C)C)O[C@H]1n1cnc2c(N)ncnc21 [Compound 63],< 1,1 to 10,,,
C#C[C@@]1(O)[C@H](O)[C@@](CCl)(COP(=O)(O)OP(=O)(O)OP(=O)(O)O)O[C@H]1n1cnc2c(N)ncnc21 [compound 245],,,< 1,10 to 100,
CCOc1nc(N)nc2c1ncn2[C@@H]1O[C@](F)(COP(=O)(N[C@@H](C)C(=O)OCC(C)(C)C)Oc2ccccc2)[C@@H](F)[C@@]1(C)O (some centres unmarked) [Compound 21],,,,,"EC50 (Human rhinovirus 1B): < 1 µM; EC50 (subgenomic HCV replicon; Huh-7, 72 h): 1 to 10 µM"
C[C@]1(O)[C@H](n2cnc3c(N)ncnc32)O[C@](F)(COP(=O)(O)OP(=O)(O)OP(=O)(O)O)[C@H]1O [compound 240],,,< 1,< 1,
C=C=C[C@@]1(O)[C@H](O)[C@@](CF)(COP(=O)(O)OP(=O)(O)OP(=O)(O)O)O[C@H]1n1ccc(=O)[nH]c1=O [compound 255],,,< 10,1 to 10,
N#C[C@]1(CO)O[C@@H](n2ccc(N)nc2=O)C(F)(F)[C@@H]1O [Compound 298],1 to 10,10 to 100,,,
C=CC[C@@]1(O)[C@H](O)[C@@](CF)(COP(=O)(O)OP(=O)(O)OP(=O)(O)O)O[C@H]1n1ccc(=O)[nH]c1=O [compound 253],,,< 10,10 to 100,
CC(C)OC(=O)[C@H](C)NP(=O)(OCCSC(=O)C(C)(C)CO)OC[C@@]1(CF)O[C@@H](n2ccc(=O)[nH]c2=O)[C@](C)(O)[C@@H]1O (some centres unmarked) [Compound 283],10 to 100,1 to 10,,,
C=C[C@]1(CO)O[C@@H](n2ccc(N)nc2=O)C(F)(F)[C@@H]1O [Compound 75],1 to 10,,,,"EC50 (subgenomic HCV replicon; Huh-7, 72 h): 10 to 100 µM"
C[C@]1(N=[N+]=[N-])[C@H](n2ccc(N)nc2=O)O[C@](F)(COP(=O)(O)OP(=O)(O)OP(=O)(O)O)[C@H]1O [compound 208],,,< 10,< 1,
Nc1ccn([C@@H]2O[C@](CF)(COP(=O)(O)OP(=O)(O)OP(=O)(O)O)[C@@H](O)[C@]2(O)CF)c(=O)n1 [compound 258],,,< 1,10 to 100,
C[C@]1(CO)O[C@@H](n2ccc(N)nc2=O)C(F)(F)[C@@H]1O [compound 300],< 1,10 to 100,,,
CCOc1nc(N)nc2c1ncn2[C@@H]1O[C@](CF)(COP(=O)(N[C@@H](C)C(=O)OC2CCCCC2)Oc2ccccc2)[C@@H](O)[C@@]1(C)O (some centres unmarked) [Compound 36],,,,,"EC50 (Human rhinovirus 1B): < 1 µM; EC50 (subgenomic HCV replicon; Huh-7, 72 h): < 1 µM"
C#C[C@@]1(O)[C@H](O)[C@@](CCl)(COP(=O)(OCOC(=O)OC(C)C)OCOC(=O)OC(C)C)O[C@H]1n1cnc2c(N)ncnc21 [Compound 64],1 to 10,10 to 100,,,
CC[C@]1(O)[C@H](n2ccc(=O)[nH]c2=O)O[C@](F)(COP(=O)(O)OP(=O)(O)OP(=O)(O)O)[C@H]1O [compound 239],,,< 10,10 to 100,
C[C@]1(O)[C@H](n2ccc(N)nc2=O)O[C@](C)(COP(=O)(O)OP(=O)(O)OP(=O)(O)O)[C@H]1O [compound 243],,,< 10,1 to 10,
Nc1ncnc2c1ncn2[C@@H]1O[C@H](CO)[C@@H](O)[C@]1(O)CF [compound 301],10 to 100,< 1,,,
CCOc1nc(N)nc2c1ncn2[C@@H]1O[C@](F)(COP(=O)(OCOC(=O)OC(C)C)OCOC(=O)OC(C)C)[C@@H](F)[C@@]1(C)O [Compound 57],< 1,< 1,,,
C#C[C@@]1(O)[C@H](O)[C@@](CF)(COP(=O)(O)OP(=O)(O)OP(=O)(O)O)O[C@H]1n1cnc2c(N)ncnc21 [compound 93],,,< 1,10 to 100,
O=c1ccn([C@@H]2O[C@](CCl)(COP(=O)(O)OP(=O)(O)OP(=O)(O)O)[C@@H](O)C2(F)F)c(=O)[nH]1 [compound 73],,,< 10,10 to 100,
C=C[C@]1(COP(=O)(O)OP(=O)(O)OP(=O)(O)O)O[C@@H](n2ccc(N)nc2=O)C(F)(F)[C@@H]1O [compound 79],,,< 10,10 to 100,
C[C@]1(O)[C@H](n2ccc(=O)[nH]c2=O)O[C@@](COP(=O)(O)OP(=O)(O)OP(=O)(O)O)(C(F)F)[C@H]1O [compound 273],,,< 10,10 to 100,
Nc1ccn([C@@H]2O[C@H](COP(=O)(O)OP(=O)(O)OP(=O)(O)O)[C@@H](O)[C@]2(O)CF)c(=O)n1 [compound 276],,,< 10,< 1,
